Assays:
[1] = molecular target: neuronal nicotinic acetylcholine receptors (Rattus norvegicus, UniProt P09483+P12390); assay: [3H]-cytisine binding to neuronal nicotinic acetylcholine receptors, crude synaptic membranes from whole rat brain; conditions: [3H]-CYT 1.25 nM, 60 minutes at 4° C., K1 from IC50 by Cheng and Prusoff correction
Protocol: The in vitro protocols for determination of nicotinic acetylcholine channel receptor binding potencies of ligands was determined as follows.
Binding of [^3H]-cytisine ([^3H]-CYT) to neuronal nicotinic acetylcholine receptors was accomplished using crude synaptic membrane preparations from whole rat brain (Pabreza et al., Molecular Pharmacol., 1990, 39:9). Washed membranes were stored at −80° C. prior to use. Frozen aliquots were slowly thawed and resuspended in 20 volumes of buffer (containing: 120 mM NaCl, 5 mM KCl, 2 mM MgCl2, 2 mM CaCl2 and 50 mM Tris-Cl, pH 7.4 @4° C.). After centrifuging at 20,000×g for 15 minutes, the pellets were resuspended in 30 volumes of buffer.
The test compounds were dissolved in water to make 10 mM stock solutions.
Samples were incubated for 60 minutes at 4° C., then rapidly filtered through Whatman GF/B filters presoaked in 0.5% polyethyleneimine using 3×4 mL of ice-cold buffer. The filters are counted in 4 mL of Ecolume® (ICN). Nonspecific binding was determined in the presence of 10 μM (−)-nicotine and values were expressed as a percentage of total binding. IC50 values were determined with a four-parameter non-linear regression and IC50 values were converted to K1 values using the Cheng and Prusoff correction (K1=IC50/(1+[ligand]/Kd of ligand).
Each Example number corresponds to the synthetic Examples described above.

[2] = test system: mice (hot plate paradigm); assay: mouse hot plate paradigm (analgesia, tenth jump latency); format: in vivo; conditions: footnote symbols: no significant effect at the stated dose, intraperitoneal, 30 minutes prior to testing, hot plate 55° C.
Protocol: An in vivo protocol was utilized to determine the effectiveness of nicotinic acetylcholine receptor ligands as analgesic agents in the mouse hot plate paradigm.
Separate groups of mice, (n=8/group) were utilized for each dose group. All drugs were administered by the intraperitoneal route of administration. Test drugs were dissolved in water to make a 6.2 mM stock solution. Animals were dosed with this solution (10 mL/kg body weight) for a 62 micromol/kg dose. Lower doses were administered similarly, following serial dilution of the stock solution in half-log increments. Animals were dosed 30 minutes prior to testing in the hot plate. The hot-plate utilized was an automated analgesia monitor (Model #AHP16AN, Omnitech Electronics, Inc. of Columbus, Ohio). The temperature of the hot plate was maintained at 55° C. and a cut-off time of 180 seconds was utilized. A control was run against each compound tested. Latency until the tenth jump was recorded as the dependent measure. An increase in the tenth jump latency relative to the control was considered a significant effect.

Sequence of neuronal nicotinic acetylcholine receptors (P09483 31-630): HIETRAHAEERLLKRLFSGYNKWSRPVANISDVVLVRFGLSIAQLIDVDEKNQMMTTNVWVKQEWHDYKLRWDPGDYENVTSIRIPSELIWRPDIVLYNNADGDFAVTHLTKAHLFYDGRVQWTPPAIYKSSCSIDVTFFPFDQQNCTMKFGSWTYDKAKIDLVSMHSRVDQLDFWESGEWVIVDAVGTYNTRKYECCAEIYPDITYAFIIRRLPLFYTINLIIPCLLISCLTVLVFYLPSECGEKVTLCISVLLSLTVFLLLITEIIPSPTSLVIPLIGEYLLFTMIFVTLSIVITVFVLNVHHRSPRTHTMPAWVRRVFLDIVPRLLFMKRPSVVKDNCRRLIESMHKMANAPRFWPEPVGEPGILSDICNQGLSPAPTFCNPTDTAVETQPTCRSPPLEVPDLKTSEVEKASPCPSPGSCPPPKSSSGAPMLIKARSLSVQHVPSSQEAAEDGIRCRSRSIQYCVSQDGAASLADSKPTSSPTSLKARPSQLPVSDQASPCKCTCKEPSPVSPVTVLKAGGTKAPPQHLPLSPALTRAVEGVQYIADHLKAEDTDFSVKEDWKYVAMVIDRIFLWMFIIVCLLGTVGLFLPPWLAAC
Sequence of neuronal nicotinic acetylcholine receptors (P12390 25-500): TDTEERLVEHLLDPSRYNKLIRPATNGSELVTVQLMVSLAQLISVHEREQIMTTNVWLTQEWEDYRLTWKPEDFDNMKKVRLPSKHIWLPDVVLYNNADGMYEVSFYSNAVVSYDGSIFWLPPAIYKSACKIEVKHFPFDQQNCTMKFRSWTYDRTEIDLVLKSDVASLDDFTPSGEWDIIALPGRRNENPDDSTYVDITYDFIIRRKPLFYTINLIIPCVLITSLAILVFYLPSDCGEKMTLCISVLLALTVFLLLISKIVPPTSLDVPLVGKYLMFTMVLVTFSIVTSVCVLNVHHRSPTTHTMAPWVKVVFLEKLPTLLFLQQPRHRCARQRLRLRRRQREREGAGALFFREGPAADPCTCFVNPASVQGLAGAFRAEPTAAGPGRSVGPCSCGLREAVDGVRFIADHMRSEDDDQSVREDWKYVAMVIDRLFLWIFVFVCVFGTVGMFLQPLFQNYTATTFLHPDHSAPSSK

5-[(S)-2-amino-1-propyloxy]-2-chloro-3-(4-vinylpyridinyl)pyridine p-toluenesulfonic acid [Example 13]
Ki [1]: 0.0761 nM

C[C@@H](COc1cnc(Cl)c(C=Cc2ccncc2)c1)N(C)C (single isomer, unassigned) [Example 14]
melting point: 79 to 81 °C | Analgesic MED (μmol/kg) [2]: * (no effect at 62)

C[C@H](COc1cnc(Cl)c(C=Cc2ccncc2)c1)N(C)C (single isomer, unassigned) [Example 39]
melting point: 81 to 83 °C | Analgesic MED (μmol/kg) [2]: * (no effect at 62)

CN(C)[C@H](COc1cnc(Cl)c(C=Cc2ccncc2)c1)Cc1ccccc1 [Example 24, 5-[(S)-2-N-dimethyl-amino-3-phenyl-1-propyloxy]-2-chloro-3-(4-vinylpyridinyl)pyridine di-p-toluenesulfonic acid]
minimal effective dose ([2]; Mus musculus, ip, 0.5 h, read-out: Analgesic MED): > 62 µmol/kg

C[C@@H](COc1ccc(Cl)nc1)N(C)C.Cc1ccc(S(=O)(=O)O)cc1 [Example 27, 5-[(S)-2-dimethylamino-1-propyloxy]-2-chloro pyridine p-toluenesulfonic acid]
Analgesic MED (μmol/kg) [2]: * (no effect at 62)

From patent US6656958B2, “Substituted pyridine compounds useful for controlling chemical synaptic transmission” (Abbott Laboratories, priority 2000, dated 2003)
